In PubChem BioAssay (NCI):
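Following 48 hours of exposure in 96-well plates, responses at five concentrations were used to interpolate endpoints linearly. The concentration for full growth arrest is given as TGI.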

Tests used:
Assay in all cases: DTP human tumour cell line panel, 48 h
[1] = test system: HCC-2998 colon
[2] = test system: UACC-257 melanoma
[3] = test system: U251 CNS
[4] = test system: MALME-3M melanoma
[5] = test system: RXF 393 renal
[6] = test system: SK-MEL-2 melanoma
[7] = test system: HOP-62 NSCLC
[8] = test system: ACHN renal
[9] = test system: NCI-H522 lung
[10] = test system: SNB-75 CNS
[11] = test system: LOX IMVI melanoma
[12] = test system: CAKI-1 renal
[13] = test system: NCI-H460 lung
[14] = test system: KM20L2 colon
[15] = test system: M14 melanoma
[16] = test system: SW-620 colon
[17] = test system: EKVX NSCLC
[18] = test system: SF-295 CNS
[19] = test system: SN12C renal
[20] = test system: HOP-18 NSCLC
[21] = test system: SF-268 CNS
[22] = test system: M19-MEL melanoma
[23] = test system: UO-31 renal
[24] = test system: LXFL 529 NSCLC
[25] = test system: SNB-19 CNS
[26] = test system: NCI-H23 lung
[27] = test system: OVCAR-8 ovarian
[28] = test system: A549 NSCLC
[29] = test system: DLD-1 colon
[30] = test system: SNB-78 CNS
[31] = test system: DMS 114 small cell lung
[32] = test system: TK-10 renal
[33] = test system: SF-539 CNS
[34] = test system: HT29 colon
[35] = test system: DMS 273 small cell lung
[36] = test system: SR leukemia
[37] = test system: NCI-H226 lung
[38] = test system: SK-MEL-28 melanoma
[39] = test system: OVCAR-5 ovarian
[40] = test system: KM12 colon
[41] = test system: XF 498 CNS
[42] = test system: HOP-92 NSCLC
[43] = test system: RXF-631 renal
[44] = test system: SK-OV-3 ovarian
[45] = test system: RPMI-8226 leukemia
[46] = test system: IGROV1 ovarian
[47] = test system: COLO 205 colon
[48] = test system: OVCAR-4 ovarian
[49] = test system: HL-60(TB) leukemia
[50] = test system: MOLT-4 leukemia
[51] = test system: 786-0 renal
[52] = test system: OVCAR-3 ovarian
[53] = test system: K-562 leukemia
[54] = test system: SK-MEL-5 melanoma
[55] = test system: UACC-62 melanoma
[56] = test system: CCRF-CEM leukemia
[57] = test system: HCT-15 colon
[58] = test system: HCT-116 colon
[59] = test system: A498 renal

Measured: TGI

CCCCN1C(=O)NC(Cc2ccccc2)C1=O (stereo not given)
> 100 µM: [1] | [2] | [3] | [4] | [5] | [6] | [7] | [8] | [9] | [10] | [11] | [12] | [13] | [14] | [15] | [16] | [17] | [18] | [19] | [20] | [21] | [22] | [23] | [24] | [25] | [26] | [27] | [28] | [29] | [30] | [31] | [32] | [33] | [34] | [35] | [36] | [37] | [38] | [39] | [40] | [41]

O=C1C(=O)C(Br)(Br)C(Br)=C1Br
33.7 µM: [6]
32.9 µM: [47]
35.4 µM: [4]
34.4 µM: [22]
38.2 µM: [49]
30.7 µM: [14]
28.6 µM: [40]
54.8 µM: [17]
29.4 µM: [54]
32.4 µM: [15]
51.8 µM: [19]
29.1 µM: [52]
6.68 µM: [9]
36.7 µM: [42]
79.8 µM: [3]
40.8 µM: [31]
29.6 µM: [8]
38.5 µM: [34]
31.9 µM: [11] | [16]
33.6 µM: [55]
69.6 µM: [48]
99.5 µM: [45]
43.6 µM: [2]
33.4 µM: [33]
33.5 µM: [23]
39.9 µM: [32]
48.1 µM: [35]
> 100 µM: [43] | [44] | [7] | [46] | [13] | [18] | [25] | [28]
26.8 µM: [39]
57.1 µM: [56]
34.9 µM: [12]
29.8 µM: [20]
27.7 µM: [10]
41.4 µM: [29]
29 µM: [24]
29.7 µM: [38]
63 µM: [50]
62 µM: [1]
32.1 µM: [51]
41.9 µM: [57]
41.3 µM: [53]
36.6 µM: [27]

COc1ccc2c(c1)OC[C@@H]1c3cc4c(cc3O[C@H]21)OCO4
> 100 µM: [42] | [1] | [3] | [4] | [5] | [44] | [6] | [7] | [45] | [8] | [9] | [11] | [12] | [13] | [14] | [15] | [16] | [17] | [58] | [18] | [47] | [20] | [21] | [23] | [24] | [25] | [48] | [26] | [27] | [28] | [49] | [50] | [29] | [51] | [30] | [31] | [32] | [33] | [34] | [35] | [52] | [53] | [54] | [59] | [37] | [38] | [39] | [56] | [40] | [41] | [57]
69.2 µM: [10]

O=C1CCC2(CC1)SCCCS2
> 100 µM: [42] | [1] | [2] | [3] | [4] | [5] | [44] | [6] | [7] | [45] | [46] | [8] | [9] | [10] | [11] | [12] | [13] | [14] | [15] | [16] | [17] | [18] | [19] | [47] | [21] | [22] | [23] | [24] | [25] | [48] | [26] | [27] | [28] | [49] | [29] | [51] | [31] | [32] | [34] | [35] | [52] | [53] | [54] | [55] | [59] | [37] | [38] | [39] | [56] | [40] | [41] | [57]
